Experimental data taken from PMC4536076, “Chemical Library Screening and Structure-Function Relationship Studies Identify Bisacodyl as a Potent and Selective Cytotoxic Agent Towards Quiescent Human Glioblastoma Tumor Stem-Like Cells” (PLoS ONE, 2015).
Structures can show the parent of a compound that is named as a salt.

Assays:
proliferating TG1 GSCs [1] = experiment: ATP-Glo dose-response, proliferating TG1 GSCs; format: cell-based, human; conditions: SAR study, ATP-Glo cell survival assay, 24 h, triplicate; read-out: Proliferating TG1 GSCs EC50
Experimental: (§1) The EC50 value was determined for each compound by fitting the data points according to the following equation: y=Smax+Smin*(x*1/EC50)^n/1+(x*1/EC50)^n where y represents the expected response, x is the chemical compound concentration, S max and S min are the maximum and minimum responses recorded, respectively and n is the Hill coefficient. Curve fitting was performed using Microsoft Excel Solver component.
(§2) Proliferating or quiescent TG1 cells were seeded in 50 μL of their respective media (30 000 and 40 000 viable cells/well, respectively) into 96-well opaque bottom plates (Greiner, Courtaboeuf, France). Compound treatment was performed by adding 50 μL of compound solutions (in the presence of 2% DMSO in culture medium). […] All compounds were tested in triplicate in each experiment. Independent experiments were performed at least twice for almost all of the compounds.

quiescent TG1 GSCs [2] = experiment: ATP-Glo dose-response, quiescent TG1 GSCs; format: cell-based, human; conditions: SAR study, ATP-Glo cell survival assay, 24 h, triplicate; read-out: Quiescent TG1 GSCs EC50
Experimental: as §1, §2

quiescent TG1 GSCs [3] = conditions: 50 μM
Experimental: (§3) Proliferating or quiescent TG1 GSCs were seeded (30 000 and 40 000 viable cells/well, respectively) into 96-well opaque bottom plates (Greiner) with the Biomek FX robot (Beckman Coulter). Each compound from the Prestwick Library was then added (final concentration: 50 μM; 1% DMSO). Each molecule was tested once. Negative control wells (12/96 per assay plate) contained cells treated with 1% DMSO (final concentration) and positive control wells (4/96 per assay plate) contained cells treated with the fungal toxin ophiobolin A (Sigma Aldrich) at 50 μM with 1% DMSO. […] Luminescence in each well was measured with the Victor3 plate reader (PerkinElmer).
(§4) Relative ATP levels in each well were determined by calculating the percentage of luminescent signal in the well with respect to the average signal measured in negative control wells.
(§5) Primary screen hits were further tested in duplicate, at two concentrations (50 and 5 μM) on proliferating and quiescent TG1 GSCs. Cell plating and treatment with compounds were as for the primary screen. Hit selection/confirmation criteria for quiescent cells were as described above.

proliferating TG1 GSCs [4] = conditions: 50 μM
Experimental: as §3, §4, §5

Row | Molecule | Activity on quiescent TG1 GSCs (hit compounds reducing ATP levels) (quiescent TG1 GSCs [3]; primary screen, 24 h) | Activity on proliferating TG1 GSCs (hit compounds reducing ATP levels) (proliferating TG1 GSCs [4]; primary screen, 24 h) | also measured
1 | 4-hydroxyphenyl-4-phenyl-(pyridin-2-yl)-methane [Compound 7] |  |  | EC50 (proliferating TG1 GSCs [1]): > 100 µM; EC50 (quiescent TG1 GSCs [2]): 17.1 ± 6.3 µM
2 | 4-hydroxyphenyl-4-trifluoromethylphenyl-2-pyrimidyl-methane [Compound 11] |  |  | EC50 (proliferating TG1 GSCs [1]): > 100 µM; EC50 (quiescent TG1 GSCs [2]): 12.4 ± 6.9 µM
3 | CCCCC(CC)CNC(=N)NC(=N)NCCCCCCNC(=N)NC(=N)NCC(CC)CCCC (stereo not drawn) [Alexidine dihydrochloride] | yes | yes | 
4 | CCCCc1oc2ccccc2c1C(=O)c1cc(I)c(OCCN(CC)CC)c(I)c1 [Amiodarone hydrochloride] | yes | yes | 
5 | Clc1ccc(CCC(Cn2ccnc2)Sc2c(Cl)cccc2Cl)cc1 (stereo not drawn) [Butoconazole nitrate] | yes | yes | 
6 | CC[C@H]1CN2CCc3cc(OC)c(OC)cc3[C@@H]2C[C@@H]1C[C@H]1NCCc2cc(O)c(OC)cc21.Cl.Cl.O.O.O.O.O.O.O [Cephaeline dihydrochloride heptahydrate] | yes | yes | 
7 | CCN(CC)CCOc1ccc(C(=C(Cl)c2ccccc2)c2ccccc2)cc1.O=C(O)CC(O)(CC(=O)O)C(=O)O [Clomiphene citrate (Z, E)] | yes | yes | 
8 | Clc1ccccc1C(c1ccccc1)(c1ccccc1)n1ccnc1 [Clotrimazol] | yes | yes | 
9 | CC/C(=C(/CC)c1ccc(O)cc1)c1ccc(O)cc1 [Diethylstilbestrol] | yes | yes | 
10 | Cl.Cl.Fc1ccc(C(OCCN2CCN(CCCc3ccccc3)CC2)c2ccc(F)cc2)cc1 [GBR 12909 dihydrochloride] | yes | yes | 
11 | Cc1cc2c(C(C)C)c(O)c(O)c(C=O)c2c(O)c1-c1c(C)cc2c(C(C)C)c(O)c(O)c(C=O)c2c1O [Gossypol] | yes | yes | 
12 | Clc1ccc(C(Cn2ccnc2)OCc2c(Cl)cccc2Cl)c(Cl)c1 (stereo not drawn) [Isoconazole] | yes | yes | 
13 | CC(=O)O[C@H]1C[C@H](O[C@H]2[C@@H](O)C[C@H](O[C@H]3[C@@H](O)C[C@H](O[C@H]4CC[C@@]5(C)[C@H](CC[C@@H]6[C@@H]5C[C@@H](O)[C@]5(C)[C@@H](C7=CC(=O)OC7)CC[C@]65O)C4)O[C@@H]3C)O[C@@H]2C)O[C@H](C)[C@H]1O[C@@H]1O[C@H](CO)[C@@H](O)[C@H](O)[C@H]1O [Lanatoside C] | yes | yes | 
14 | CC[C@@H](C(=O)[C@@H](C)[C@@H](O)[C@H](C)CCc1ccc(C)c(O)c1C(=O)[O-])[C@H]1O[C@](CC)([C@H]2CC[C@](O)(CC)[C@H](C)O2)C[C@@H]1C.[Na+] [Lasalocid sodium salt] | yes | yes | 
15 | O[C@H]1[C@H]2c3cc4c(cc3CN3CCC(=C[C@@H]1O)[C@H]23)OCO4 [Lycorine hydrochloride] | yes | yes | 
16 | Cc1cccc(CN2CCN(C(c3ccccc3)c3ccc(Cl)cc3)CC2)c1.Cl.Cl (stereo not drawn) [Meclozine dihydrochloride] | yes | yes | 
17 | OC(c1cc(C(F)(F)F)nc2c(C(F)(F)F)cccc12)C1CCCCN1 (stereo not drawn) [Mefloquine hydrochloride] | yes | yes | 

Row | Molecule | Activity on quiescent TG1 GSCs (hit compounds reducing ATP levels) (quiescent TG1 GSCs [3]; primary screen, 24 h) | Activity on proliferating TG1 GSCs (hit compounds reducing ATP levels) (proliferating TG1 GSCs [4]; primary screen, 24 h) | also measured
18 | CC1=CC(=O)c2ccccc2C1=O [Menadione] | yes | yes | 
19 | Clc1ccc(COC(Cn2ccnc2)c2ccc(Cl)cc2Cl)c(Cl)c1 (stereo not drawn) [Miconazole] | yes | yes | 
20 | CCOC(=O)C1=C(C)NC(C)=C(C(=O)OC)C1c1cccc([N+](=O)[O-])c1 (stereo not drawn) [Nitrendipine] |  | yes | Activity on quiescent TG1 CSCs (hit compounds increasing ATP levels) (quiescent TG1 GSCs [3]; primary screen, 24 h): yes
21 | O=C(N/N=C/c1ccc([N+](=O)[O-])o1)c1ccc(O)cc1 [Nitrofuroxazide] | yes | yes | 
22 | CC(C)=C[C@H]1C[C@H](C)[C@]2(CC[C@]3(C)C[C@H]4[C@H](C(=O)C[C@@]4(C)O)/C(C=O)=C\C[C@H]32)O1 [Ophiobolin A] |  |  | cytotoxicity (positive control) (quiescent TG1 GSCs [3]; 1% DMSO, quiescent GSCs): cytotoxic; cytotoxicity (positive control) (proliferating TG1 GSCs [4]; 1% DMSO, proliferating GSCs): cytotoxic
23 | COc1cc2nc(N3CCN(C(=O)c4ccco4)CC3)nc(N)c2cc1OC [Prazosin hydrochloride] | yes | yes | 
24 | COc1cc(NC(C)CCCN)c2ncccc2c1 (stereo not drawn) [Primaquine diphosphate] | yes | yes | 
25 | C[n+]1cc2c3c(ccc2c2ccc4cc5c(cc4c21)OCO5)OCO3 [Sanguinarine] | yes | yes | 
26 | Clc1ccc(C(Cn2ccnc2)OCc2csc3c(Cl)cccc23)c(Cl)c1 (stereo not drawn) [Sertaconazole nitrate] | yes | yes | 
27 | CN[C@H]1CC[C@@H](c2ccc(Cl)c(Cl)c2)c2ccccc21 [Sertraline] | yes | yes | 
28 | CC/C(=C(\c1ccccc1)c1ccc(OCCN(C)C)cc1)c1ccccc1 [Tamoxifen citrate] | yes | yes | 
29 | CSc1ccc2c(c1)N(CCC1CCCCN1C)c1ccccc1S2 (stereo not drawn) [Thioridazine hydrochloride] |  | yes | 
30 | CCCCCCCCCCCCCCCC[N+](C)(C)CCN(Cc1ccc(OC)cc1)c1ncccn1 [Thonzonium bromide] | yes | yes | 
31 | C[C@H]1CC[C@]2(NC1)O[C@H]1C[C@H]3[C@@H]4CC[C@H]5C[C@@H](O[C@@H]6O[C@H](CO)[C@H](O[C@@H]7O[C@H](CO)[C@@H](O)[C@H](O[C@@H]8OC[C@@H](O)[C@H](O)[C@H]8O)[C@H]7O[C@@H]7O[C@H](CO)[C@@H](O)[C@H](O)[C@H]7O)[C@H](O)[C@H]6O)CC[C@]5(C)[C@H]4CC[C@]3(C)[C@H]1[C@@H]2C [Tomatine] | yes | yes | 
32 | CCOC1O[C@H]([C@@H](COCc2ccccc2)OCc2ccccc2)[C@H](OCc2ccccc2)[C@H]1O (stereo partly drawn) [Tribenoside] | yes | yes | 
33 | C[C@H](CCC(=O)O)[C@H]1CC[C@H]2[C@@H]3[C@@H](O)C[C@@H]4C[C@H](O)CC[C@]4(C)[C@H]3CC[C@]12C [Urosiol] |  |  | Activity on proliferating TG1 CSCs (hit compounds increasing ATP levels) (proliferating TG1 GSCs [4]; primary screen, 24 h): yes
34 | Avermectin B1 | yes | yes | 
